# pIC50: −log10 of the molar value. Structures can show the parent of a compound that is named as a salt.
# What was measured:
# [1] = system: SAS; assay: cells; format: functional, cell-based, Homo sapiens;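 further: growth inhibition of SAS cells, read out with a cell viability assay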
# Description: SANGER: Inhibition of human SAS cell growth in a cell viability assay.
# [2] = system: A-431; assay: cells; format: functional, cell-based, Homo sapiens;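 further: growth inhibition of A-431 cells, determined with a cell viability read-out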
# Description: SANGER: Inhibition of human A431 cell growth in a cell viability assay.
# [3] = system: SW1783; assay: cells; format: functional, cell-based, Homo sapiens
# Description: SANGER: Inhibition of human SW1783 cell growth in a cell viability assay.
# [4] = system: HGC-27; assay: cells; format: functional, cell-based, Homo sapiens;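 further: growth inhibition of human HGC-27 cells, read out in a cell viability assay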
# Description: SANGER: Inhibition of human HGC-27 cell growth in a cell viability assay.
# [5] = system: ChaGo-K-1; assay: cells; format: functional, cell-based, Homo sapiens;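 further: growth inhibition of ChaGo-K-1 cells, read out with a cell viability assay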
# Description: SANGER: Inhibition of human ChaGo-K-1 cell growth in a cell viability assay.
# [6] = system: UMUC3; assay: cells; format: functional, cell-based, Homo sapiens;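 further: growth inhibition of human UM-UC-3 cells, read out with a cell viability assay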
# Description: SANGER: Inhibition of human UM-UC-3 cell growth in a cell viability assay.
# [7] = system: HuCCT-1; assay: cells; format: functional, cell-based, Homo sapiens, HuCCT1;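 further: growth inhibition of HuCCT-1 cells, read out by a cell viability assay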
# Description: SANGER: Inhibition of human HuCCT1 cell growth in a cell viability assay.
# [8] = system: T47D; assay: cells; format: functional, cell-based, Homo sapiens;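 further: growth inhibition of human T47D cells, measured with a cell viability assay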
# Description: SANGER: Inhibition of human T47D cell growth in a cell viability assay.
# [9] = system: YAPC; assay: cells; format: functional, cell-based, Homo sapiens;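 further: growth inhibition of YAPC cells, measured with a cell viability assay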
# Description: SANGER: Inhibition of human YAPC cell growth in a cell viability assay.
# [10] = system: NCI-H630; assay: cells; format: functional, cell-based, Homo sapiens; settings: Homo sapiens, NCI-H630;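 further: growth inhibition of NCI-H630 cells, read out with a cell viability assay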
# Description: SANGER: Inhibition of human NCI-H630 cell growth in a cell viability assay.
# [11] = system: SK-LU-1; assay: cells; format: functional, cell-based, Homo sapiens;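 further: cell viability assay measuring growth inhibition of human SK-LU-1 cells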
# Description: SANGER: Inhibition of human SK-LU-1 cell growth in a cell viability assay.
# [12] = system: SW780; assay: cells; format: functional, cell-based, Homo sapiens;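 further: growth inhibition of the cells, read out with a cell viability assay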
# Description: SANGER: Inhibition of human SW780 cell growth in a cell viability assay.
# [13] = system: RCM-1; assay: cells; format: functional, cell-based, Homo sapiens;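 further: growth inhibition of the RCM-1 line, determined with a cell viability readout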
# Description: SANGER: Inhibition of human RCM-1 cell growth in a cell viability assay.
# [14] = system: NY; assay: cells; format: functional, cell-based, Homo sapiens
# Description: SANGER: Inhibition of human NY cell growth in a cell viability assay.
# [15] = system: SW756; assay: cells; format: functional, cell-based, Homo sapiens;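 further: growth inhibition of human SW756 cells, read out with a cell viability assay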
# Description: SANGER: Inhibition of human SW756 cell growth in a cell viability assay.
# [16] = system: KYSE-270; assay: cells; format: functional, cell-based, Homo sapiens;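 further: cell growth inhibition measured with a viability assay in the human KYSE-270 line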
# Description: SANGER: Inhibition of human KYSE-270 cell growth in a cell viability assay.
# [17] = system: SK-MES-1; assay: cells; format: functional, cell-based, Homo sapiens;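 further: growth inhibition of human SK-MES-1 cells, read out with a cell viability assay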
# Description: SANGER: Inhibition of human SK-MES-1 cell growth in a cell viability assay.
# [18] = system: D-566MG; assay: cells; format: functional, cell-based, Homo sapiens; settings: Homo sapiens, D-566MG
# [19] = system: MEL-HO; assay: cells; format: functional, cell-based, Homo sapiens
# Description: SANGER: Inhibition of human MEL-HO cell growth in a cell viability assay.
# [20] = system: OC-314; assay: cells; format: functional, cell-based, Homo sapiens; settings: Homo sapiens, OC-314
# Description: SANGER: Inhibition of human OC-314 cell growth in a cell viability assay.
# [21] = system: COR-L23; assay: cells; format: functional, cell-based, Homo sapiens;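 further: cell viability assay measuring how strongly compounds suppress growth of COR-L23 cells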
# Description: SANGER: Inhibition of human COR-L23 cell growth in a cell viability assay.
# [22] = system: HN; assay: cells; format: functional, cell-based, Homo sapiens
# Description: SANGER: Inhibition of human HN cell growth in a cell viability assay.
# [23] = system: SW13; assay: cells; format: functional, cell-based, Homo sapiens;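 further: IC50 is inhibition of SW13 cell growth, read out with a cell viability assay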
# Description: SANGER: Inhibition of human SW13 cell growth in a cell viability assay.
# [24] = system: A549; assay: cells; format: functional, cell-based, Homo sapiens; settings: Homo sapiens, A549;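 further: growth inhibition of A549 cells, read out with a cell viability assay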
# Description: SANGER: Inhibition of human A549 cell growth in a cell viability assay.
# [25] = system: PC-14; assay: cells; format: functional, cell-based, Homo sapiens;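 further: cell viability assay measuring inhibition of PC-14 cell growth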
# Description: SANGER: Inhibition of human PC-14 cell growth in a cell viability assay.
# [26] = system: HO-1-N-1; assay: cells; format: functional, cell-based, Homo sapiens;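 further: growth inhibition of human HO-1-N-1 cells, read out with a cell viability assay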
# Description: SANGER: Inhibition of human HO-1-N-1 cell growth in a cell viability assay.
# [27] = system: DOK; assay: cells; format: functional, cell-based, Homo sapiens;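 further: cell viability assay read-out, values reflect inhibition of cell growth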
# Description: SANGER: Inhibition of human DOK cell growth in a cell viability assay.
# [28] = system: BFTC-909; assay: cells; format: functional, cell-based, Homo sapiens
# Description: SANGER: Inhibition of human BFTC-909 cell growth in a cell viability assay.
# [29] = system: SF-295; assay: cells; format: functional, cell-based, Homo sapiens;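 further: growth inhibition of SF-295 cells, read out with a cell viability assay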
# Description: SANGER: Inhibition of human SF295 cell growth in a cell viability assay.
# [30] = system: NCI-H1693; assay: cells; format: functional, cell-based, Homo sapiens;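 further: growth inhibition of the human cell line, read out with a cell viability assay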
# Description: SANGER: Inhibition of human NCI-H1693 cell growth in a cell viability assay.
# [31] = system: TUR; assay: cells; format: functional, cell-based, Homo sapiens;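 further: growth inhibition of human TUR cells, read out with a cell viability assay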
# Description: SANGER: Inhibition of human TUR cell growth in a cell viability assay.
# [32] = system: MKN-7; assay: cells; format: functional, cell-based, Homo sapiens;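 further: growth inhibition of MKN-7 cells, read out with a cell viability assay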
# Description: SANGER: Inhibition of human MKN7 cell growth in a cell viability assay.
# [33] = system: BC1 cell line; assay: SANGER: Inhibition of human BC-1 cell growth in a cell viability assay.; format: functional, cell-based
# [34] = system: HuP-T3; assay: cells; format: functional, cell-based, Homo sapiens;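 further: HuP-T3 cell growth inhibition, read out with a cell viability assay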
# Description: SANGER: Inhibition of human HuP-T3 cell growth in a cell viability assay.
# [35] = system: VMRC-RCZ; assay: cells; format: functional, cell-based, Homo sapiens
# Description: SANGER: Inhibition of human VMRC-RCZ cell growth in a cell viability assay.
# [36] = system: SW-620; assay: cells; format: functional, cell-based, Homo sapiens;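 further: growth inhibition of human SW-620 cells, measured by a cell viability assay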
# Description: SANGER: Inhibition of human SW620 cell growth in a cell viability assay.
# [37] = system: GCT; assay: cells; format: functional, cell-based, Homo sapiens;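 further: GCT cell line proliferation inhibition, read out with a cell viability assay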
# Description: SANGER: Inhibition of human GCT cell growth in a cell viability assay.
# [38] = system: NCI-H520; assay: cells; format: functional, cell-based, Homo sapiens;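 further: growth inhibition of NCI-H520 cells, measured by a cell viability assay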
# Description: SANGER: Inhibition of human NCI-H520 cell growth in a cell viability assay.
# [39] = system: NCI-H187; assay: cells; format: functional, cell-based, Homo sapiens;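 further: growth inhibition of NCI-H187 cells, read out as cell viability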
# Description: SANGER: Inhibition of human NCI-H187 cell growth in a cell viability assay.
# [40] = system: SR; assay: cells; format: functional, cell-based, Homo sapiens
# Description: SANGER: Inhibition of human SR cell growth in a cell viability assay.
# [41] = system: CESS; assay: SANGER: Inhibition of human CESS cell growth in a cell viability assay.; format: functional, cell-based
# [42] = system: BOKU; assay: cells; format: functional, cell-based, Homo sapiens;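 further: growth inhibition of the human BOKU cell line, read out by a cell viability assay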
# Description: SANGER: Inhibition of human BOKU cell growth in a cell viability assay.
# [43] = system: CMK; assay: cells; format: functional, cell-based, Homo sapiens;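 further: growth inhibition of CMK cells, read out as cell viability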
# Description: SANGER: Inhibition of human CMK cell growth in a cell viability assay.
# [44] = system: THP-1; assay: cells; format: functional, cell-based, Homo sapiens;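 further: growth inhibition of THP-1 cells, read out via a cell viability assay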
# Description: SANGER: Inhibition of human THP-1 cell growth in a cell viability assay.
# [45] = system: HCC1954; assay: cells; format: functional, cell-based, Homo sapiens;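 further: growth inhibition of human HCC1954 cells, read out with a cell viability assay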
# Description: SANGER: Inhibition of human HCC1954 cell growth in a cell viability assay.
# [46] = system: SK-MM-2; assay: cells; format: functional, cell-based, Homo sapiens;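 further: growth inhibition of human SK-MM-2 cells, read out with a cell viability assay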
# Description: SANGER: Inhibition of human SK-MM-2 cell growth in a cell viability assay.
# [47] = system: UACC-62; assay: cells; format: functional, cell-based, Homo sapiens;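 further: growth inhibition of human UACC-62 cells, read out by a cell viability assay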
# Description: SANGER: Inhibition of human UACC-62 cell growth in a cell viability assay.
# [48] = system: EVSA-T; assay: cells; format: functional, cell-based, Homo sapiens;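 further: growth inhibition of EVSA-T cells, read out with a cell viability assay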
# Description: SANGER: Inhibition of human EVSA-T cell growth in a cell viability assay.
# [49] = system: DK-MG; assay: cells; format: functional, cell-based, Homo sapiens;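 further: growth inhibition of DK-MG cells, read out with a cell viability assay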
# Description: SANGER: Inhibition of human DK-MG cell growth in a cell viability assay.
compound,measurement,setting,value
CN(C)C(=N)NC(=N)N [METFORMIN],pIC50,"[1]; Homo sapiens, SAS",1.95
same,pIC50,"[2]; Homo sapiens, A-431",< 1.70
same,pIC50,"[3]; Homo sapiens, SW1783",< 1.70
same,pIC50,"[4]; Homo sapiens, HGC-27",< 1.70
same,pIC50,"[5]; Homo sapiens, ChaGo-K-1",2.05
same,pIC50,"[6]; Homo sapiens, UMUC3",1.89
same,pIC50,"[7]; Homo sapiens, HuCCT-1",< 1.70
same,pIC50,"[8]; Homo sapiens, T47D",1.70
same,pIC50,"[9]; Homo sapiens, YAPC",< 1.70
same,pIC50,[10],< 1.70
same,pIC50,"[11]; Homo sapiens, SK-LU-1",< 1.70
same,pIC50,"[12]; Homo sapiens, SW780",1.91
same,pIC50,"[13]; Homo sapiens, RCM-1",< 1.70
same,pIC50,"[14]; Homo sapiens, NY",1.85
same,pIC50,"[15]; Homo sapiens, SW756",< 1.70
same,pIC50,"[16]; Homo sapiens, KYSE-270",< 1.70
same,pIC50,"[17]; Homo sapiens, SK-MES-1",< 1.70
same,pIC50,[18],1.97
same,pIC50,"[19]; Homo sapiens, MEL-HO",2.05
same,pIC50,[20],< 1.70
same,pIC50,"[21]; Homo sapiens, COR-L23",< 1.70
same,pIC50,"[22]; Homo sapiens, HN",< 1.70
same,pIC50,"[23]; Homo sapiens, SW13",2.00
same,pIC50,[24],2.34
same,pIC50,"[25]; Homo sapiens, PC-14",1.75
same,pIC50,"[26]; Homo sapiens, HO-1-N-1",1.88
same,pIC50,"[27]; Homo sapiens, DOK",2.37
same,pIC50,"[28]; Homo sapiens, BFTC-909",< 1.70
same,pIC50,"[29]; Homo sapiens, SF-295",2.21
same,pIC50,"[30]; Homo sapiens, NCI-H1693",< 1.70
COC1=CC(c2cc3ccccc3[nH]2)=N/C1=C\c1[nH]c(C)cc1C [OBATOCLAX MESYLATE],pIC50,"[1]; Homo sapiens, SAS",6.56
same,pIC50,"[31]; Homo sapiens, TUR",5.94
same,pIC50,"[2]; Homo sapiens, A-431",7.06
same,pIC50,"[3]; Homo sapiens, SW1783",6.71
same,pIC50,"[32]; Homo sapiens, MKN-7",5.72
same,pIC50,"[4]; Homo sapiens, HGC-27",> 7.20
same,pIC50,"[33]; Homo sapiens, BC1",7.22
same,pIC50,"[5]; Homo sapiens, ChaGo-K-1",6.21
same,pIC50,"[34]; Homo sapiens, HuP-T3",6.28
same,pIC50,"[35]; Homo sapiens, VMRC-RCZ",6.39
same,pIC50,"[6]; Homo sapiens, UMUC3",6.54
same,pIC50,"[36]; Homo sapiens, SW-620",> 7.20
same,pIC50,"[7]; Homo sapiens, HuCCT-1",7.08
same,pIC50,"[8]; Homo sapiens, T47D",5.91
same,pIC50,"[9]; Homo sapiens, YAPC",5.22
same,pIC50,"[37]; Homo sapiens, GCT",5.59
same,pIC50,"[11]; Homo sapiens, SK-LU-1",6.87
same,pIC50,"[12]; Homo sapiens, SW780",5.96
same,pIC50,"[13]; Homo sapiens, RCM-1",6.24
same,pIC50,"[14]; Homo sapiens, NY",6.93
same,pIC50,"[38]; Homo sapiens, NCI-H520",6.89
same,pIC50,"[39]; Homo sapiens, NCI-H187",5.23
same,pIC50,"[40]; Homo sapiens, SR",> 7.20
same,pIC50,"[41]; Homo sapiens, CESS",7.08
same,pIC50,"[15]; Homo sapiens, SW756",7.42
same,pIC50,"[42]; Homo sapiens, BOKU",5.89
same,pIC50,"[16]; Homo sapiens, KYSE-270",7.53
same,pIC50,"[17]; Homo sapiens, SK-MES-1",6.89
same,pIC50,"[43]; Homo sapiens, CMK",7.52
same,pIC50,"[19]; Homo sapiens, MEL-HO",7.63
same,pIC50,"[44]; Homo sapiens, THP-1",7.70
same,pIC50,"[45]; Homo sapiens, HCC1954",5.23
same,pIC50,"[21]; Homo sapiens, COR-L23",7.21
same,pIC50,"[22]; Homo sapiens, HN",> 7.20
same,pIC50,"[46]; Homo sapiens, SK-MM-2",6.24
same,pIC50,"[23]; Homo sapiens, SW13",6.39
same,pIC50,"[25]; Homo sapiens, PC-14",7.28
same,pIC50,"[47]; Homo sapiens, UACC-62",6.52
same,pIC50,"[26]; Homo sapiens, HO-1-N-1",7.03
same,pIC50,"[27]; Homo sapiens, DOK",6.07
same,pIC50,"[48]; Homo sapiens, EVSA-T",6.09
same,pIC50,"[28]; Homo sapiens, BFTC-909",6.34
same,pIC50,"[29]; Homo sapiens, SF-295",6.47
same,pIC50,"[30]; Homo sapiens, NCI-H1693",5.70
same,pIC50,"[49]; Homo sapiens, DK-MG",6.15
BLEOMYCIN,pIC50,[1]; sas,5.49
same,pIC50,[31]; tur,4.72
same,pIC50,[2]; a-431,5.68
same,pIC50,[3]; sw1783,6.60
same,pIC50,[32]; mkn-7,4.18
same,pIC50,[4]; hgc-27,5.55
same,pIC50,[33]; bc1,5.41
same,pIC50,[5]; chago-k-1,4.79
same,pIC50,[34]; hup-t3,5.32
same,pIC50,[35]; vmrc-rcz,5.57
same,pIC50,[6]; umuc3,6.02
same,pIC50,[36]; sw-620,5.45
same,pIC50,[7]; hucct1,4.96
same,pIC50,[8]; t47d,3.77
same,pIC50,[9]; yapc,2.38
same,pIC50,[37]; gct,5.30
same,pIC50,[11]; sk-lu-1,6.00
same,pIC50,[12]; sw780,2.09
same,pIC50,[13]; rcm-1,5.90
same,pIC50,[14]; ny,5.23
same,pIC50,[38]; nci-h520,4.79
same,pIC50,[39]; nci-h187,2.06
same,pIC50,[40]; sr,7.53
same,pIC50,[41]; cess,9.26
same,pIC50,[15]; sw756,4.94
same,pIC50,[42]; boku,6.86
same,pIC50,[16]; kyse-270,6.14
same,pIC50,[17]; sk-mes-1,5.51
same,pIC50,[43]; cmk,4.83
same,pIC50,[19]; mel-ho,6.07
same,pIC50,[44]; thp-1,4.03
same,pIC50,[45]; hcc1954,4.07
same,pIC50,[21]; cor-l23,7.12
same,pIC50,[22]; hn,4.54
same,pIC50,[46]; sk-mm-2,4.63
same,pIC50,[23]; sw13,7.09
same,pIC50,[25]; pc-14,6.74
same,pIC50,[47]; uacc-62,3.73
same,pIC50,[26]; ho-1-n-1,5.35
same,pIC50,[27]; dok,3.49
same,pIC50,[48]; evsa-t,3.07
same,pIC50,[28]; bftc-909,7.86
same,pIC50,[29]; sf-295,7.67
same,pIC50,[30]; nci-h1693,4.78
same,pIC50,[49]; dk-mg,4.07
